Experimental data: US12364738B2, “Composition comprising at least one enzyme and at least one microbicidal molecule for the prevention or treatment of post-implant infections” (ONELIFE S.A., priority 2016, dated 2025)
Where two headings read alike, the source gives them in different places. Marks after values point to notes of the source that are not given here.

Legend:
[1] = cited from earlier work
[2] = tested on: isolate 8, E. faecalis strain 9781 (urinary catheter), biofilm; conditions: static model, 24 h biofilm, 24 h treatment, ciprofloxacin 0.15 to 40 mg/L
Method: (§1) The measurement was conventionally carried out by absorption photometry (measurement at 590 nm with the Spectramax M4 equipment).
(§2) From each of the isolates given in table 1, biofilms (n=4) were developed over 24 hours at a temperature of 37° C. in the wells of a 96-well plate containing 200 μL of a TSB culture medium (Tryptic Soy Broth VWR) supplemented with 1% glucose and 2% sodium chloride.
(§3) Before proceeding with the measurement of the viability of the bacterial cells with resazurin, the plates containing the developed biofilms were washed with a PBS buffer (pH=7.4) then incubated with resazurin (0.01 mg/L) for 1 hour in the dark.

[3] = tested on: isolate 5, E. coli strain 6081 (urinary catheter), biofilm; conditions: static model, 24 h biofilm, 24 h treatment, ciprofloxacin 0.15 to 40 mg/L
Method: as §1, §2, §3

[4] = tested on: isolate 11, P. aeroginosa strain 04/190 (urinary catheter), biofilm; conditions: static model, 24 h biofilm, 24 h treatment, ciprofloxacin 0.15 to 40 mg/L
Method: as §1, §2, §3

[5] = tested on: isolate 10, P. aeroginosa strain DIV5508 (central venous catheter), biofilm; conditions: static model, 24 h biofilm, 24 h treatment, ciprofloxacin 0.15 to 40 mg/L
Method: as §1, §2, §3

[6] = tested on: isolate 2, S. aureus MRSA strain 80224422456 (knee prosthesis), biofilm; conditions: static model, 24 h biofilm, 24 h treatment, ciprofloxacin 0.15 to 40 mg/L
Method: as §1, §2, §3

[7] = tested on: isolate 1, S. aureus MRSA strain 80124430375 (pacemaker), biofilm; conditions: static model, 24 h biofilm, 24 h treatment, ciprofloxacin 0.15 to 40 mg/L
Method: as §1, §2, §3

[8] = tested on: isolate 3, S. aureus MRSA strain 80124474762 (knee screw), biofilm; conditions: static model, 24 h biofilm, 24 h treatment, ciprofloxacin 0.15 to 40 mg/L
Method: as §1, §2, §3

[9] = tested on: isolate 1, S. aureus isolated from a pacemaker, biofilm; conditions: dynamic model, 48 h biofilm on PEG protrusions, 24 h treatment, agitation 120 RPM
Method: (§4) In order to judge the effectiveness of a post-implantation treatment carried out with a composition according to the invention, the viability of the bacteria was measured by following the development of the colour of the resazurin (7-Hydroxy-3H-phenoxazin-3-on 10-oxide), this colour changing according to the redox potential which depends on microbial activity. The measurement was conventionally carried out by absorption photometry (measurement at 590 nm with the Spectramax M4 equipment).
(§5) Before proceeding with the measurement of the viability of the bacterial cells with resazurin, the PEG plates with the protrusions containing the developed biofilms were incubated with resazurin for 2 hours in the dark.

[10] = tested on: isolate 5, E. coli isolated from a urinary catheter, biofilm; conditions: dynamic model, 48 h biofilm on PEG protrusions, 24 h treatment, agitation 120 RPM
Method: as §4, §5

[11] = tested on: isolate 4, S. epidermis strain 80224420266 (central venous catheter), biofilm; conditions: static model, 24 h biofilm, 24 h treatment, ciprofloxacin 0.15 to 40 mg/L
Method: as §1, §2, §3

[12] = tested on: isolate 9, E. faecalis strain 9555 (urinary catheter), biofilm; conditions: static model, 24 h biofilm, 24 h treatment, ciprofloxacin 0.15 to 40 mg/L
Method: as §1, §2, §3

[13] = tested on: isolate 1, S. aureus isolated from a pacemaker, biofilm; experiment: Confocal microscopic images with LIVE/DEAD staining, isolate 1; format: cell-based; conditions: 24 h biofilm, 24 h treatment, ciprofloxacin 1 mg/L, FIGS. 4 and 5
Method: For isolate 1 (S. aureus isolated from a pacemaker on which a biofilm developed in the human body after implantation), confocal images were taken and correspond to FIGS. 3 to 5.
Before obtaining the different images, staining was carried out with the LIVE/DEAD kit (Invitrogen) for 30 minutes before rinsing with a PBS buffer.

[14] = tested on: isolate 6, E. coli strain 5701 (orthopaedic implant), biofilm; conditions: static model, 24 h biofilm, 24 h treatment, ciprofloxacin 0.15 to 40 mg/L
Method: as §1, §2, §3

[15] = tested on: isolate 7, E. faecalis strain 9794 (urinary catheter), biofilm; conditions: static model, 24 h biofilm, 24 h treatment, ciprofloxacin 0.15 to 40 mg/L
Method: as §1, §2, §3

[16] = serum, after administration of the antibiotic, based on EUCAST, used as test concentration

## NCC[C@H](O)C(=O)N[C@@H]1C[C@H](N)[C@@H](O[C@H]2O[C@H](CN)[C@@H](O)[C@H](O)[C@H]2O)[C@H](O)[C@H]1O[C@H]1O[C@H](CO)[C@@H](O)[C@H](N)[C@H]1O [amikacin]
[1]; in vivo
  Cmin, minimum serum concentration: 5000 ng/mL
[1]; [16]
  Cmax, maximum serum concentration after administration of the antibiotic: 24000 ng/mL

## C[C@@H](O)[C@H]1C(=O)N2C(C(=O)O)=C(S[C@@H]3CN[C@H](C(=O)N(C)C)C3)[C@H](C)[C@H]12 [meropenem]
[1]; in vivo
  Cmin, minimum serum concentration: 100 ng/mL
[1]; [16]
  Cmax, maximum serum concentration after administration of the antibiotic: 20000 ng/mL

## COc1c(N2C[C@@H]3CCCN[C@@H]3C2)c(F)cc2c(=O)c(C(=O)O)cn(C3CC3)c12 [moxifloxacin]
[1]; [16]
  Cmax, maximum serum concentration after administration of the antibiotic: 3600 ng/mL
  Cmin, minimum serum concentration: 300 ng/mL

## O=C(O)c1cn(C2CC2)c2cc(N3CCNCC3)c(F)cc2c1=O [solution A, ciprofloxacin]
[2]
  Concentration of the antibiotic molecule in a solution comprising the antibiotic alone (solution A) to reduce the viability of the bacteria by 50% (EC50): >40 µg/mL
[3]
  Concentration of the antibiotic molecule in a solution comprising the antibiotic alone (solution A) to reduce the viability of the bacteria by 50% (EC50): 2.7 µg/mL
[4]
  Concentration of the antibiotic molecule in a solution comprising the antibiotic alone (solution A) to reduce the viability of the bacteria by 50% (EC50): >40 µg/mL
[5]
  Concentration of the antibiotic molecule in a solution comprising the antibiotic alone (solution A) to reduce the viability of the bacteria by 50% (EC50): >40 µg/mL
[6]
  Concentration of the antibiotic molecule in a solution comprising the antibiotic alone (solution A) to reduce the viability of the bacteria by 50% (EC50): 0.8 µg/mL
[1]; [16]
  Cmin, minimum serum concentration: 600 ng/mL
[7]
  Concentration of the antibiotic molecule in a solution comprising the antibiotic alone (solution A) to reduce the viability of the bacteria by 50% (EC50): >40^a mg/L
[8]
  Concentration of the antibiotic molecule in a solution comprising the antibiotic alone (solution A) to reduce the viability of the bacteria by 50% (EC50): 1.2 µg/mL
[9]
  Concentration of the antibiotic molecule in a solution comprising the antibiotic alone (solution A) to reduce the viability of the bacteria by 50% (EC50): 0.7 µg/mL
[10]
  Concentration of the antibiotic molecule in a solution comprising the antibiotic alone (solution A) to reduce the viability of the bacteria by 50% (EC50): 3.18 µg/mL
[11]
  Concentration of the antibiotic molecule in a solution comprising the antibiotic alone (solution A) to reduce the viability of the bacteria by 50% (EC50): 1.77 µg/mL
[12]
  Concentration of the antibiotic molecule in a solution comprising the antibiotic alone (solution A) to reduce the viability of the bacteria by 50% (EC50): >40 µg/mL
[13]
  live/dead state of the bacteria in confocal images: numerous bacteria are still alive
[14]
  Concentration of the antibiotic molecule in a solution comprising the antibiotic alone (solution A) to reduce the viability of the bacteria by 50% (EC50): >40 µg/mL
[15]
  Concentration of the antibiotic molecule in a solution comprising the antibiotic alone (solution A) to reduce the viability of the bacteria by 50% (EC50): >40 µg/mL

## NC[C@H]1O[C@H](O[C@H]2[C@H](O)[C@@H](O[C@H]3O[C@H](CO)[C@@H](O)[C@H](N)[C@H]3O)[C@H](N)C[C@@H]2N)[C@H](N)C[C@@H]1O [tobramycin]
[1]; in vivo
  Cmin, minimum serum concentration: 900 ng/mL
[1]; [16]
  Cmax, maximum serum concentration after administration of the antibiotic: 4000 ng/mL
